# Measured values reported in the supplement of paper PMC10307832.
# Legend:
# Experiment in all cases: relative viability (nuclei count vs DMSO), 5 days (fraction); higher = more cells survive
# [1] = compound: CC1=C(CC(=O)O)c2cc(F)ccc2/C1=C\c1ccc([S+](C)[O-])cc1 [Sulindac] + Cc1cc(Nc2cc(N3CCN(C)CC3)nc(Sc3ccc(NC(=O)C4CC4)cc3)n2)n[nH]1 [Tozasertib] (partner 0.1 µM)
# Summary of the method: (§1)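 Relative viability was taken as the ratio of nuclei in treated wells to nuclei in vehicle wells. Lung cancer cell lines in 1536-well plates received compounds by pin tool one day after seeding, either one drug alone or a fixed anchor-drug dose plus five library-drug doses (not always all listed) in √10 steps. Nuclei were counted on 4× images after 5 days of treatment, and values are medians of duplicate plates.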
# [2] = compound: O=c1[nH]cc(F)c(=O)[nH]1 [5-Fluorouracil] + CC(C)C[C@H](NC(=O)[C@H](Cc1ccccc1)NC(=O)c1cnccn1)B(O)O [Bortezomib] (partner 0.002 µM)
# Summary of the method: as §1
# [3] = compound: O=c1[nH]cc(F)c(=O)[nH]1 [5-Fluorouracil] + CS(=O)(=O)N1CCN(Cc2cc3nc(-c4cccc5[nH]ncc45)nc(N4CCOCC4)c3s2)CC1 [Pictilisib] (partner 1 µM)
# Summary of the method: as §1
# [4] = compound: O=c1[nH]cc(F)c(=O)[nH]1 [5-Fluorouracil] + O=C(c1cc(Cc2n[nH]c(=O)c3ccccc23)ccc1F)N1CCN(C(=O)C2CC2)CC1 [Olaparib] (partner 8 µM)
# Summary of the method: as §1
Cell Line,relative viability ([1]; first compound 0.08 µM),relative viability ([1]; first compound 0.253 µM),relative viability ([1]; first compound 0.8 µM),relative viability ([1]; first compound 2.53 µM),relative viability ([1]; first compound 8 µM),relative viability ([2]; first compound 0.02 µM),relative viability ([2]; first compound 0.2 µM),relative viability ([2]; first compound 0.6325 µM),relative viability ([2]; first compound 2 µM),relative viability ([3]; first compound 0.02 µM),relative viability ([3]; first compound 0.2 µM),relative viability ([3]; first compound 0.6325 µM),relative viability ([3]; first compound 2 µM),relative viability ([4]; first compound 0.02 µM),relative viability ([4]; first compound 0.2 µM),relative viability ([4]; first compound 0.6325 µM),relative viability ([4]; first compound 2 µM)
NCI-H1993,0.597,0.629,0.514,0.651,0.598,1.36,0.919,0.658,0.559,0.793,0.657,0.661,0.779,1.15,0.743,0.525,0.445
NCI-H358,0.112,0.0982,0.104,0.0899,0.102,–,–,–,–,0.337,0.354,0.337,0.294,0.637,0.686,0.612,0.39
SK-LU-1,0.286,0.347,0.342,0.288,0.406,1.12,1.34,1.18,0.981,0.491,0.558,0.549,0.402,0.511,0.551,0.557,0.407
NCI-H1915,0.505,0.451,–,0.423,0.416,0.717,1,0.915,0.765,0.958,0.908,1.01,0.773,0.197,0.269,0.22,0.211
NCI-H650,0.76,0.744,0.71,0.607,0.757,0.894,0.622,0.517,0.529,0.823,0.674,0.45,0.387,0.282,0.323,0.26,0.293
NCI-H441,0.763,0.773,0.593,0.725,0.667,0.513,0.408,0.482,0.303,0.453,0.442,0.35,0.243,0.514,0.438,0.292,0.269
NCI-H1703,–,–,–,–,–,0.326,0.36,0.314,0.365,0.283,0.25,0.275,0.24,0.337,0.614,0.365,0.255
NCI-H1944,0.258,0.263,0.254,0.247,0.259,–,–,–,–,0.4,0.357,0.295,0.243,0.389,0.379,0.298,0.187
EBC-1,–,–,–,–,–,0.64,0.553,0.619,0.477,0.319,0.33,0.46,0.329,0.769,0.772,0.759,0.44
NCI-H1792,–,–,–,–,–,1.03,0.84,0.272,0.185,0.337,0.243,0.113,0.0763,0.467,0.54,0.169,0.175
SK-MES-1,1.07,1.01,0.848,0.956,1.09,–,–,–,–,0.34,0.338,0.297,0.196,0.656,0.32,0.296,0.264
NCI-H1563,–,–,–,–,–,0.895,0.859,0.841,0.718,0.662,0.601,0.647,0.671,–,–,–,–
SW 900,–,0.516,–,0.462,0.585,–,–,–,–,–,–,–,–,0.751,0.794,0.811,0.522
NCI-H1299,–,–,–,–,–,1.07,1.05,1.04,0.959,0.953,0.634,0.474,0.248,1.06,1.02,0.917,0.655
A549,–,–,–,–,–,–,–,–,–,0.578,0.474,0.21,0.12,0.298,0.501,0.202,0.0825
NCI-H1793,0.283,0.283,0.349,0.33,0.336,–,–,–,–,0.37,0.376,0.303,0.247,0.787,0.9,0.613,0.483
NCI-H1623,0.392,0.458,0.421,0.418,0.429,–,–,–,–,–,–,–,–,–,–,–,–
NCI-H2170,0.791,0.928,0.797,0.675,0.719,–,–,–,–,0.354,0.338,0.314,0.285,0.597,0.545,0.339,0.289
NCI-H1395,0.694,0.732,0.776,0.733,0.866,–,–,–,–,0.581,0.62,0.578,0.594,0.481,0.445,0.557,0.479
NCI-H2342,0.447,0.492,0.513,0.397,0.583,–,–,–,–,–,–,–,–,0.419,0.529,0.442,0.39
Calu-6,–,–,–,–,–,0.984,0.947,0.801,0.42,1.08,0.948,0.836,0.485,0.535,0.557,0.519,0.347
LK-2,0.186,0.178,–,–,0.189,–,–,–,–,0.635,0.575,0.374,0.452,0.589,0.814,0.529,0.428
